According to patent publication US20250230193A1, “CYCLIC COMPOUND HAVING SELECTIVE KRAS INHIBITORY EFFECT ON HRAS AND NRAS” (CHUGAI SEIYAKU KABUSHIKI KAISHA, priority 2022, published 2025):
Where a SMILES comes first, the peptide text is derived from it. Bridges are numbered along the chain shown (N, C = ends). [ ]: non-standard residue; d: D form. hPhe(3-Cl-4-CF3) = N[C@@H](CCc1ccc(C(F)(F)F)c(Cl)c1)C(=O)O; NPrPhe(4-CF3) = CCCN[C@@H](Cc1ccc(C(F)(F)F)cc1)C(=O)O; NMeGly(cPent) = CN[C@H](C(=O)O)C1CCCC1; Pro(4,4-F2) = O=C(O)[C@@H]1CC(F)(F)CN1; Hyp = O=C(O)[C@@H]1C[C@@H](O)CN1; NMeL = CN[C@@H](CC(C)C)C(=O)O; Ac5c = NC1(C(=O)O)CCCC1; Aze = O=C(O)[C@@H]1CCN1; Ac4c = NC1(C(=O)O)CCC1; NEtG = CCNCC(=O)O; Sar = CNCC(=O)O

Legend:
[1] = target: GDP-bound NRAS wild-type protein (Homo sapiens, UniProt P01111); assay: Binding to NRAS by surface plasmon resonance (SPR), Single Cycle Kinetics; conditions: KD ratio NRAS/KRAS, SPR
Sequence of GDP-bound NRAS wild-type protein (P01111 whole entry): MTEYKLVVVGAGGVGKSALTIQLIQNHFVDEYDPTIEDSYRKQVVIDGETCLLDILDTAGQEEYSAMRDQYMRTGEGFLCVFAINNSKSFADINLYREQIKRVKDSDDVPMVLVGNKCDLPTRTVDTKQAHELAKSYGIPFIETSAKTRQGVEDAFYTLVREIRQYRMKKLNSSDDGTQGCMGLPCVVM

[2] = target: GDP-bound HRAS wild-type protein (Homo sapiens, UniProt P01112); assay: Binding to HRAS by surface plasmon resonance (SPR), Single Cycle Kinetics; conditions: KD ratio HRAS/KRAS, SPR
Sequence of GDP-bound HRAS wild-type protein (P01112 whole entry): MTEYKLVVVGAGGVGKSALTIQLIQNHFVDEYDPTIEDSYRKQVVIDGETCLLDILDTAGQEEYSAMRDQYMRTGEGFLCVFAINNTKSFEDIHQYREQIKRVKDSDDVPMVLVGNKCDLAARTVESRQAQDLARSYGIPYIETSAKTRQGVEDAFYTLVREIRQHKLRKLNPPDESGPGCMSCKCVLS

Row | Structure (SMILES) | NRAS/KRAS (ratio of KD for GDP-bound NRAS wild-type to KD for KRAS) [1] | HRAS/KRAS (ratio of KD for GDP-bound HRAS wild-type to KD for KRAS) [2]
1 | CCCN1C(=O)CN(C)C(=O)CN(CC)C(=O)[C@H]([C@@H](C)CC)NC(=O)[C@H](CC(C)C)N(C)C(=O)C[C@@H](C(=O)N(C)C)NC(=O)[C@H](C2CCCC2)N(C)C(=O)C2(CCC2)NC(=O)[C@@H]2CC(F)(F)CN2C(=O)[C@H](CCc2ccc(C(F)(F)F)c(Cl)c2)NC(=O)CN(C)C(=O)[C@@H]1Cc1ccc(C(F)(F)F)cc1 [PP0370] ([NMeL]I[NEtG][Sar][NPrPhe(4-CF3)][Sar][hPhe(3-Cl-4-CF3)][Pro(4,4-F2)][Ac4c][NMeGly(cPent)]D-NMe2; lactam N-11) | B (a compound having 3 or more and less than 10 is denoted as B) | C (A compound having a KD ratio of 0.1 or more and less than 3 is denoted as C)
2 | CCCN1C(=O)CN(C)C(=O)CN(CC)C(=O)[C@H]([C@@H](C)CC)NC(=O)[C@H](CC(C)C)N(C)C(=O)C[C@@H](C(=O)N(C)C)NC(=O)[C@H](C2CCCC2)N(C)C(=O)C2(CCCC2)NC(=O)[C@@H]2C[C@@H](OCC)CN2C(=O)[C@H](CCc2ccc(C(F)(F)F)c(Cl)c2)NC(=O)CN(C)C(=O)[C@@H]1Cc1ccc(C(F)(F)F)cc1 [PP0371] ([NMeL]I[NEtG][Sar][NPrPhe(4-CF3)][Sar][hPhe(3-Cl-4-CF3)][Hyp](Et)[Ac5c][NMeGly(cPent)]D-NMe2; lactam N-11) | B (a compound having 3 or more and less than 10 is denoted as B) | C (A compound having a KD ratio of 0.1 or more and less than 3 is denoted as C)
3 | CCCN1C(=O)CN(C)C(=O)CN(CC)C(=O)[C@H]([C@@H](C)CC)NC(=O)[C@H](CC(C)C)N(C)C(=O)C[C@@H](C(=O)N(C)C)NC(=O)[C@H](C2CCCC2)N(C)C(=O)C2(CCC2)NC(=O)[C@@H]2C[C@@H](OCC)CN2C(=O)[C@H](CCc2ccc(C(F)(F)F)c(Cl)c2)NC(=O)CN(C)C(=O)[C@@H]1Cc1ccc(C(F)(F)F)cc1 [PP0372] ([NMeL]I[NEtG][Sar][NPrPhe(4-CF3)][Sar][hPhe(3-Cl-4-CF3)][Hyp](Et)[Ac4c][NMeGly(cPent)]D-NMe2; lactam N-11) | B (a compound having 3 or more and less than 10 is denoted as B) | B (a compound having 3 or more and less than 10 is denoted as B)
4 | CCCN1C(=O)CN(C)C(=O)[C@@H]2CCN2C(=O)[C@H]([C@@H](C)CC)NC(=O)[C@H](CC(C)C)N(C)C(=O)C[C@@H](C(=O)N(C)C)NC(=O)[C@H](C2CCCC2)N(C)C(=O)C2(CCCC2)NC(=O)[C@@H]2CCCN2C(=O)[C@H](CCc2ccc(C(F)(F)F)c(Cl)c2)NC(=O)CN(C)C(=O)[C@@H]1Cc1ccc(C(F)(F)F)cc1 [PP0373] ([NMeL]I[Aze][Sar][NPrPhe(4-CF3)][Sar][hPhe(3-Cl-4-CF3)]P[Ac5c][NMeGly(cPent)]D-NMe2; lactam N-11) | B (a compound having 3 or more and less than 10 is denoted as B) | B (a compound having 3 or more and less than 10 is denoted as B)
5 | CCCN1C(=O)CN(C)C(=O)[C@@H]2CCN2C(=O)[C@H]([C@@H](C)CC)NC(=O)[C@H](CC(C)C)N(C)C(=O)C[C@@H](C(=O)N(C)C)NC(=O)[C@H](C2CCCC2)N(C)C(=O)C2(CCC2)NC(=O)[C@@H]2CCCN2C(=O)[C@H](CCc2ccc(C(F)(F)F)c(Cl)c2)NC(=O)CN(C)C(=O)[C@@H]1Cc1ccc(C(F)(F)F)cc1 [PP0374] ([NMeL]I[Aze][Sar][NPrPhe(4-CF3)][Sar][hPhe(3-Cl-4-CF3)]P[Ac4c][NMeGly(cPent)]D-NMe2; lactam N-11) | B (a compound having 3 or more and less than 10 is denoted as B) | B (a compound having 3 or more and less than 10 is denoted as B)
6 | CCCN1C(=O)CN(C)C(=O)[C@@H]2CCN2C(=O)[C@H]([C@@H](C)CC)NC(=O)[C@H](CC(C)C)N(C)C(=O)C[C@@H](C(=O)N(C)C)NC(=O)[C@H](C2CCCC2)N(C)C(=O)C2(CCCC2)NC(=O)[C@@H]2CC(F)(F)CN2C(=O)[C@H](CCc2ccc(C(F)(F)F)c(Cl)c2)NC(=O)CN(C)C(=O)[C@@H]1Cc1ccc(C(F)(F)F)cc1 [PP0375] ([NMeL]I[Aze][Sar][NPrPhe(4-CF3)][Sar][hPhe(3-Cl-4-CF3)][Pro(4,4-F2)][Ac5c][NMeGly(cPent)]D-NMe2; lactam N-11) | B (a compound having 3 or more and less than 10 is denoted as B) | B (a compound having 3 or more and less than 10 is denoted as B)
